Test results reported in ChEMBL document CHEMBL5241112, “Insights into the recent progress in the medicinal chemistry of pyranopyrimidine analogs” (RSC Med Chem, 2022).
Converted amounts (≈) assume the structure as drawn. Each block holds one compound with its values, some of them ahead of it.

What was measured:
[1] = target: T1, Free fatty acid receptor 3 (Homo sapiens, UniProt O14843); test: Agonist activity at FFA3 (unknown origin) expressed in human Flp-In-293 cells assessed as inhibition of forskolin-stimulated cAMP accumulation incubated for 30 mins by Lance cAMP assay; type: cell-based
T1 sequence (O14843 whole entry): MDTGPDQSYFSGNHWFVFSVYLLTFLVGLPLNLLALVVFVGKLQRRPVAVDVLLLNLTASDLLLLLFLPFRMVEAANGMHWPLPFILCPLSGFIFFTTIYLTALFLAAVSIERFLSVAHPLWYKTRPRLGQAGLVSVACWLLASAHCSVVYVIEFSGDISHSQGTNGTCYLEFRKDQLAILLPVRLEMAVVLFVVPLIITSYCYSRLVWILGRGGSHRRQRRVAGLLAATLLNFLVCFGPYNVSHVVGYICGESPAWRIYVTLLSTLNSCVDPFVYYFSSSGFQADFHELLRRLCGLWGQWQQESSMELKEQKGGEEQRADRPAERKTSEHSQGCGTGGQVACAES

[2] = target: Hydroxycarboxylic acid receptor 2 (Homo sapiens, UniProt Q8TDS4); test: Agonist activity at human HCA2 expressed in human Flp-In-293 cells assessed as inhibition of forskolin-stimulated cAMP accumulation incubated for 30 mins by Lance cAMP assay; type: cell-based
Hydroxycarboxylic acid receptor 2, sequence (Q8TDS4 whole entry): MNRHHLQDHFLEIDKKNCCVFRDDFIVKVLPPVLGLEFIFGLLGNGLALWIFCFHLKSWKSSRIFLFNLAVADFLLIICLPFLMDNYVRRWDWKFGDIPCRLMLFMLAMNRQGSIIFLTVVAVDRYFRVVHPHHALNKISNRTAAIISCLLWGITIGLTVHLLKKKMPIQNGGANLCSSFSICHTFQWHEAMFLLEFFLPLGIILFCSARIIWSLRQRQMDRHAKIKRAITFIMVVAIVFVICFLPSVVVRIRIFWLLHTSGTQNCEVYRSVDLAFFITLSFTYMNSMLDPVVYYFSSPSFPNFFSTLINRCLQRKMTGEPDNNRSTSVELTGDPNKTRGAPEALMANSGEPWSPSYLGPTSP

[3] = test system: Escherichia coli; test: Antibacterial activity against Escherichia coli assessed as bacterial growth inhibition by broth microdilution method; type: functional
[4] = test system: Klebsiella pneumoniae; test: Antibacterial activity against Klebsiella pneumoniae assessed as bacterial growth inhibition by broth microdilution method; type: functional
[5] = test system: Pseudomonas aeruginosa; test: Antibacterial activity against Pseudomonas aeruginosa assessed as bacterial growth inhibition by broth microdilution method; type: functional
[6] = test system: Staphylococcus aureus; test: Antibacterial activity against Staphylococcus aureus assessed as bacterial growth inhibition by broth microdilution method; type: functional
[7] = test system: Candida albicans; test: Antifungal activity against Candida albicans assessed as fungal growth inhibition by broth microdilution method; type: functional
[8] = test system: Aspergillus flavus; test: Antifungal activity against Aspergillus flavus assessed as fungal growth inhibition by broth microdilution method; type: functional
[9] = test system: Plasmodium falciparum; test: microbe, parasite or virus in culture
[10] = test system: Pseudomonas aeruginosa; test: Antimicrobial activity against Pseudomonas aeruginosa assessed as diameter of inhibition zone at 1 mg/ml incubated for 48 hrs by agar disk diffusion method; type: functional; conditions: read-out: DIZ
[11] = test system: Penicillium chrysogenum; test: Antifungal activity against Penicillium chrysogenum assessed as diameter of inhibition zone at 1 mg/ml incubated for 72 to 91 hrs by agar disk diffusion method; type: functional; conditions: time 72-91 hrs, read-out: DIZ
[12] = test system: Staphylococcus aureus; test: Antimicrobial activity against Staphylococcus aureus assessed as diameter of inhibition zone at 1 mg/ml incubated for 48 hrs by agar disk diffusion method; type: functional; conditions: read-out: DIZ
[13] = test system: Klebsiella pneumoniae; test: Antimicrobial activity against Klebsiella pneumoniae assessed as diameter of inhibition zone at 1 mg/ml incubated for 48 hrs by agar disk diffusion method; type: functional; conditions: read-out: DIZ
[14] = test system: Escherichia coli; test: Antimicrobial activity against Escherichia coli assessed as diameter of inhibition zone at 1 mg/ml incubated for 48 hrs by agar disk diffusion method; type: functional; conditions: read-out: DIZ
[15] = test system: Aspergillus niger; test: Antifungal activity against Aspergillus niger assessed as diameter of inhibition zone at 1 mg/ml incubated for 72 to 91 hrs by agar disk diffusion method; type: functional; conditions: time 72-91 hrs, read-out: DIZ
[16] = test system: Bacillus cereus; test: Antimicrobial activity against Bacillus cereus assessed as diameter of inhibition zone at 1 mg/ml incubated for 48 hrs by agar disk diffusion method; type: functional; conditions: read-out: DIZ
[17] = test system: Aspergillus niger; test: Antifungal activity against Aspergillus niger assessed as inhibition of fungal growth; type: functional
[18] = test system: Candida albicans; test: Antifungal activity against Candida albicans assessed as inhibition of fungal growth; type: functional
[19] = test system: Aspergillus flavus; test: Antifungal activity against Aspergillus flavus assessed as inhibition of fungal growth; type: functional
[20] = test system: Staphylococcus aureus; test: Antibacterial activity against Staphylococcus aureus MTCC 96 assessed as bacterial growth inhibition incubated for 24 hrs by broth microdilution method; type: functional
[21] = test system: Staphylococcus aureus; test: Antibacterial activity against Staphylococcus aureus MLS-16 MTCC 2940 assessed as bacterial growth inhibition incubated for 24 hrs by broth microdilution method; type: functional
[22] = test system: Staphylococcus aureus; test: Antibacterial activity against Staphylococcus aureus assessed as diameter of inhibition zone; type: functional
[23] = test system: Salmonella typhimurium; test: Antibacterial activity against Salmonella typhimurium assessed as diameter of inhibition zone; type: functional, Salmonella enterica subsp. enterica serovar Typhimurium
[24] = test system: Bacillus subtilis; test: Antibacterial activity against Bacillus subtilis assessed as diameter of inhibition zone; type: functional
[25] = test system: Escherichia coli; test: Antibacterial activity against Escherichia coli assessed as diameter of inhibition zone; type: functional
[26] = target: Urease (Canavalia ensiformis, UniProt P07374); test: Inhibition of jack bean urease by phenol red method
Urease, sequence (P07374 whole entry, the tested form may be a part): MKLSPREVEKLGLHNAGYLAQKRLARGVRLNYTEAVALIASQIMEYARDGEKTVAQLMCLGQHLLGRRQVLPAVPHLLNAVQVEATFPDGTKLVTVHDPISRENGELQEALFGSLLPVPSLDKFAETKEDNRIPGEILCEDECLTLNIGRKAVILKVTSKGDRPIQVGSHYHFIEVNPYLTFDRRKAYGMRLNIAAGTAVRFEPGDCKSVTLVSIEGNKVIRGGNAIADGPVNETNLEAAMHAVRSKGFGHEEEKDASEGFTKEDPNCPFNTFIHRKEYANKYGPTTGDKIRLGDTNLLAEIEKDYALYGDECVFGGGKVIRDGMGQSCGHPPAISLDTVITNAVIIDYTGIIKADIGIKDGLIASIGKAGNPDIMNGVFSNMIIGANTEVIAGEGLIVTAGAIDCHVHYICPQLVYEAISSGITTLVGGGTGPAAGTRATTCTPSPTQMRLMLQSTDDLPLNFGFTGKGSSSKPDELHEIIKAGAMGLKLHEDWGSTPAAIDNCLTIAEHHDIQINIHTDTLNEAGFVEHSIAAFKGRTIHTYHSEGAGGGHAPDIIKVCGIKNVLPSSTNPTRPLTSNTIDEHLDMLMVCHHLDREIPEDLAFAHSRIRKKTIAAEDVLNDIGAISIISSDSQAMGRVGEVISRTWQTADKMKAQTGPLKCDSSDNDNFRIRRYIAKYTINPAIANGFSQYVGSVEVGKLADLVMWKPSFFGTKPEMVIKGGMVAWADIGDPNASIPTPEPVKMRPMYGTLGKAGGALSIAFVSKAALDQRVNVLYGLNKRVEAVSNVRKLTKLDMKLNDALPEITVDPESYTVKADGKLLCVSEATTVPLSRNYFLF

[27] = test system: Klebsiella pneumoniae; test: Antimicrobial activity against Klebsiella pneumoniae ATCC 15380 assessed as diameter of inhibition zone at 20 mg/ml incubated for 24 hrs by disk diffusion method; type: functional; conditions: read-out: DIZ
[28] = test system: A549; test: Anticancer activity against human A549 cells assessed as reduction in cell viability incubated for 24 hrs by MTT assay; type: functional, cell-based; conditions: A549, 24 h

EC50 [1]: 220 nM
EC50 [2]: 51 nM
Structure (SMILES): CCc1cc(=O)oc2[nH]c(=S)[nH]c(=O)c12

MIC [3]: 6.25 µg/mL (≈ 14.7 µM)
MIC [4]: 6.25 µg/mL (≈ 14.7 µM)
MIC [5]: 6.25 µg/mL (≈ 14.7 µM)
MIC [6]: 6.25 µg/mL (≈ 14.7 µM)
MIC [7]: 6.25 µg/mL (≈ 14.7 µM)
MIC [8]: 3.12 µg/mL (≈ 7.32 µM)
Structure (SMILES): CCO/C=N/C1=C(C#N)C(c2cccc(OC)c2OC)c2c(n(C)c(=O)n(C)c2=O)O1 (stereo not given)

EC50 [1]: 220 nM
EC50 [2]: 51 nM
Structure (SMILES): CCCc1cc(=O)oc2[nH]c(=S)[nH]c(=O)c12

MIC [20]: 7.8 µg/mL (≈ 18.2 µM)
MIC [21]: 15.6 µg/mL (≈ 36.4 µM)
Structure (SMILES): Cc1cc2c(c(=O)o1)C(c1ccccc1)c1c(Nc3ccc([N+](=O)[O-])cc3)ncnc1O2 (stereo not given)

MIC [3]: 6.25 µg/mL (≈ 16.3 µM)
MIC [4]: 6.25 µg/mL (≈ 16.3 µM)
MIC [5]: 6.25 µg/mL (≈ 16.3 µM)
MIC [6]: 6.25 µg/mL (≈ 16.3 µM)
MIC [7]: 3.12 µg/mL (≈ 8.12 µM)
MIC [8]: 3.12 µg/mL (≈ 8.12 µM)
Structure (SMILES): CCO/C=N/C1=C(C#N)C(c2ccc(F)cc2)c2c(n(C)c(=O)n(C)c2=O)O1 (stereo not given)

IC50 [28]: 5760 nM
Structure (SMILES): CCOC(=O)C1=C(C)Oc2nc(C)n(Cc3cn(-c4ccc(OC)cc4[N+](=O)[O-])nn3)c(=O)c2C1c1ccccc1 (stereo not given)

EC50 [1]: 220 nM
EC50 [2]: 51 nM
Structure (SMILES): CCCCc1cc(=O)oc2[nH]c(=S)[nH]c(=O)c12

IC50 [28]: 1850 nM
Structure (SMILES): CCOC(=O)C1=C(C)Oc2nc(C)n(Cc3cn(-c4ccc([N+](=O)[O-])cc4)nn3)c(=O)c2C1c1cccs1 (stereo not given)

MIC [21]: 15.6 µg/mL (≈ 37.3 µM)
Structure (SMILES): Cc1cc2c(c(=O)o1)C(c1ccccc1)c1c(Nc3ccc(Cl)cc3)ncnc1O2 (stereo not given)

MIC [20]: 7.8 µg/mL (≈ 18.9 µM)
Structure (SMILES): COc1ccc(C2c3c(Nc4ccccc4)ncnc3Oc3cc(C)oc(=O)c32)cc1 (stereo not given)

Further lines, the compound ahead of its results:

Structure (SMILES): O=c1[nH]c(=O)c2c(CCCCCl)cc(=O)oc2[nH]1
EC50 [2]: 51 nM

Structure (SMILES): C=C[C@H]1CN2CC[C@H]1C[C@H]2[C@H](O)c1ccnc2ccc(OC)cc12 [QUININE]
IC50 [9]: 0.268 µg/mL (≈ 0.826 µM)

Structure (SMILES): COC(=O)C1=C(N)Oc2[nH]c(=S)[nH]c(=O)c2C1c1ccc(OC)c(OC)c1 (stereo not given)
zone of inhibition at 1000 µg/mL [10]: 12 mm
zone of inhibition at 1000 µg/mL [11]: 12 mm
zone of inhibition at 1000 µg/mL [12]: 13 mm
zone of inhibition at 1000 µg/mL [13]: 14 mm
zone of inhibition at 1000 µg/mL [14]: 16 mm
zone of inhibition at 1000 µg/mL [15]: 0 mm
zone of inhibition at 1000 µg/mL [16]: 15 mm

Structure (SMILES): CCC1C(C#N)=C(N)Oc2[nH]c(=O)[nH]c(=O)c21 (stereo not given)
MIC [17]: 162 µg/mL (≈ 694 µM)
MIC [18]: 125 µg/mL (≈ 534 µM)
MIC [19]: 150 µg/mL (≈ 640 µM)

Structure (SMILES): COC(=O)C1=C(N)Oc2[nH]c(=S)[nH]c(=O)c2C1c1ccc(OC)cc1 (stereo not given)
zone of inhibition at 1000 µg/mL [10]: 16 mm
zone of inhibition at 1000 µg/mL [11]: 12 mm
zone of inhibition at 1000 µg/mL [12]: 16 mm
zone of inhibition at 1000 µg/mL [13]: 18 mm
zone of inhibition at 1000 µg/mL [14]: 15 mm
zone of inhibition at 1000 µg/mL [16]: 19 mm

Structure (SMILES): COC(=O)C1=C(N)Oc2[nH]c(=S)[nH]c(=O)c2C1c1ccc(O)cc1 (stereo not given)
zone of inhibition at 1000 µg/mL [10]: 18 mm
zone of inhibition at 1000 µg/mL [11]: 23 mm
zone of inhibition at 1000 µg/mL [12]: 21 mm
zone of inhibition at 1000 µg/mL [13]: 22 mm
zone of inhibition at 1000 µg/mL [14]: 21 mm
zone of inhibition at 1000 µg/mL [15]: 23 mm
zone of inhibition at 1000 µg/mL [16]: 18 mm

Structure (SMILES): COC(=O)C1=C(N)Oc2[nH]c(=S)[nH]c(=O)c2C1c1ccc([N+](=O)[O-])cc1 (stereo not given)
zone of inhibition at 1000 µg/mL [10]: 20 mm
zone of inhibition at 1000 µg/mL [11]: 12 mm
zone of inhibition at 1000 µg/mL [12]: 17 mm
zone of inhibition at 1000 µg/mL [13]: 17 mm
zone of inhibition at 1000 µg/mL [14]: 17 mm
zone of inhibition at 1000 µg/mL [15]: 23 mm
zone of inhibition at 1000 µg/mL [16]: 21 mm

Structure (SMILES): N#CC1=C(N)Oc2[nH]c(=O)[nH]c(=O)c2C1c1ccc(Cl)cc1 (stereo not given)
MIC [17]: 162 µg/mL (≈ 513 µM)
MIC [18]: 125 µg/mL (≈ 395 µM)
diameter of the inhibition zone (DIZ) [22]: 18 mm
diameter of the inhibition zone (DIZ) [23]: 20 mm
diameter of the inhibition zone (DIZ) [24]: 16 mm
diameter of the inhibition zone (DIZ) [25]: 16 mm
MIC [19]: 150 µg/mL (≈ 474 µM)
IC50 [26]: 49700 nM

Structure (SMILES): Cc1ccc(C2C(C#N)=C(N)Oc3[nH]c(=O)[nH]c(=O)c32)o1 (stereo not given)
zone of inhibition at 20000 µg/mL [27]: 16 mm
